Patent US9951011B2, “Carbazole compounds for in vivo imaging” (priority 2013, dated 2018)
Read-outs that look alike come from different tables or passages of the source.

Columns and labels:
TSPO [1] = details: low:high affinity ratio; Compounds 1 and 2 used as racemates
Protocol: (§1) Membrane protein was prepared from human platelets obtained from 4 donor whole blood samples. […] Platelet pellets were homogenised in 10 ml buffer 1 (0.32 mM sucrose, 5 mM Tris base, 1 mM MgCl2, pH 7.4, 4° C.). The homogenates were centrifuged at 48,000×g for 15 minutes at 4° C. in a Beckman J2-MC centrifuge. The supernatant was removed and pellets were re-suspended in at least 10 ml buffer 2 (50 mM Tris base, 1 mM MgCl2, pH 7.4, 4° C.) and washed by centrifugation at 48,000×g for 15 min at 4° C. in buffer 2. Membranes were suspended in 2 ml buffer 2 and the protein concentration was determined using Protein Assay Kit II (Bio Rad cat #500-0002). Aliquots were stored at −80° C. until use.
(§2) Aliquots of membrane suspension were thawed and homogenised with assay buffer 3 (50 mM Tris base, 140 mM NaCl, 1.5 mM MgCl2, 5 mM KCl, 1.5 mM CaCl2, pH 7.4, 37° C.). […] Non-radioactive Compound 1 was diluted on a Beckman Biomek 2000 workstation at 11 serial dilutions ranging from 1 μM to 0.01 nM. GE180 and non-radioactive Compound 2 were diluted at 11 serial dilutions ranging from 100 μM to 1 nM. Total and nonspecific binding assessments were also performed. 160 μL of platelet membranes diluted to 30 μg/mL were added to the assay plate for a final volume of 200 μL/well. Assay plates were incubated at 37° C. for at least one hour with termination of incubation by filtering onto GF/B glass fibre plates (Perkin Elmer; cat #6005177) pre-soaked in 0.1% PEI in saline for 60 minutes. Assay plates were rinsed five to six times with ice cold buffer 4 (50 mM Tris Base, 1.4 mM MgCl2, pH 7.4, 4° C.) on a Perkin Elmer Filtermate 196. Plates were then dried, the bottoms sealed, and 50 μL of MicroScint 20 (Perkin Elmer cat #6013621) was added to each well. After sealing the tops, the plates were allowed to equilibrate for at least 30 minutes and the captured radioactivity was counted on a Perkin Elmer TopCount NTX.

TSPO [2] = molecular target: T1, TSPO (Homo sapiens, UniProt P30536); experiment: biochemical
Protocol: as §1, §2

TSPO [3] = molecular target: T2, TSPO (Homo sapiens, UniProt P30536, T147A); experiment: biochemical
Protocol: as §1, §2

TSPO [4] = details: low:high affinity ratio; resolved enantiomers
Protocol: as §1
(§3) Aliquots of membrane suspension were thawed and homogenised with assay buffer 3 (50 mM Tris base, 140 mM NaCl, 1.5 mM MgCl2, 5 mM KCl, 1.5 mM CaCl2, pH 7.4, 37° C.). […] Non-radioactive Compound 1 was diluted on a Beckman Biomek 2000 workstation at 11 serial dilutions ranging from 1 μM to 0.01 nM. GE180 and non-radioactive Compound 2 were diluted at 11 serial dilutions ranging from 100 μM to 1 nM. Total and nonspecific binding assessments were also performed. 160 μL of platelet membranes diluted to 30 μg/mL were added to the assay plate for a final volume of 200 μL/well. Assay plates were incubated at 37° C. for at least one hour with termination of incubation by filtering onto GF/B glass fibre plates (Perkin Elmer; cat #6005177) pre-soaked in 0.1% PEI in saline for 60 minutes. Assay plates were rinsed five to six times with ice cold buffer 4 (50 mM Tris Base, 1.4 mM MgCl2, pH 7.4, 4° C.) on a Perkin Elmer Filtermate 196. Plates were then dried, the bottoms sealed, and 50 μL of MicroScint 20 (Perkin Elmer cat #6013621) was added to each well. After sealing the tops, the plates were allowed to equilibrate for at least 30 minutes and the captured radioactivity was counted on a Perkin Elmer TopCount NTX. Compound 1 and Compound 2 were used as racemates.
(§4) Compound 1 and Compound 2 were resolved into enantiomers and the competitive binding assay was performed using platelets isolated from the same 4 human donor whole blood samples as described in Example 6.

TSPO [5] = molecular target: T1, TSPO; experiment: biochemical; remark: listed apart in the source
Protocol: as §1, §3, §4

TSPO [6] = molecular target: T2, TSPO; experiment: biochemical; remark: listed apart in the source
Protocol: as §1, §3, §4

TSPO [7] = details: in vitro; LABs versus HABs; cited from earlier work
TSPO [8] = details: versus [11C]PBR28; cited from earlier work

T1 sequence (P30536 2-169): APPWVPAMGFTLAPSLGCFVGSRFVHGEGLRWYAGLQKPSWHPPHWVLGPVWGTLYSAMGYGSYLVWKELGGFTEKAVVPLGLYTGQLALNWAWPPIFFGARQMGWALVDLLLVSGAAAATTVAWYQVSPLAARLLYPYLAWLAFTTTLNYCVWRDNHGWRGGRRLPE
T2 sequence (P30536 2-169 T147A): as the sequence (P30536 2-169) above, with T146A counted along it

Compound	Ki (TSPO [5]) [nM]	Ki (TSPO [6]) [nM]	Low:High (TSPO [4])	other results
CCN(Cc1ccccc1)C(=O)[C@H]1CCCc2c1c1ccccc1n2CCF (racemic) [Compound 1, (S)—N-benzyl-N-ethyl-9-(2-fluoroethyl)-2,3,4,9-tetrahydro-1H-carbazole-4-carboxamide]	–	–	–	Low:High (TSPO [1]): 3.24; Ki (TSPO [2]): 5.98 nM; Ki (TSPO [3]): 1.85 nM
CC(C)N(C)C(=O)[C@H]1CCCc2c1c1ccccc1n2CCF (racemic) [Compound 2, (S)—N-isopropyl-N-methyl-9-(2-fluoroethyl)-2,3,4,9-tetrahydro-1H-carbazole-4-carboxamide]	–	–	–	Low:High (TSPO [1]): 1.02; Ki (TSPO [2]): 44.9 nM; Ki (TSPO [3]): 43.8 nM
CCN(CC)C(=O)[C@H]1CCCc2c1c1c(OC)cccc1n2CCF (stereo in doubt) [GE180, 9-(2-Fluoro-ethyl)-5-methoxy-2,3,4,9-tetrahydro-1H-carbazole-4-carboxylic acid diethylamide, reference compound]	–	–	3	Low:High (TSPO [1]): 15.44
CCN(Cc1ccccc1)C(=O)[C@H]1CCCc2c1c1ccccc1n2CCF [Compound 1 E1, (S)—N-benzyl-N-ethyl-9-(2-fluoroethyl)-2,3,4,9-tetrahydro-1H-carbazole-4-carboxamide]	5	4	1	–
COc1ccccc1CN(C(C)=O)c1cnccc1Oc1ccccc1 [PBR28, N-(2-methoxybenzyl)-N-(4-phenoxypyridin-3-yl)acetamide, reference compound]	–	–	28	–
CCC(C)N(C)C(=O)c1cc2ccccc2c(-c2ccccc2Cl)n1 (stereo not drawn) [PK11195, reference compound]	–	–	1	–
COc1ccccc1CN(C(C)=O)c1cnccc1Oc1ccccc1 [[3H]PBR28]	–	–	–	lower TSPO affinity in LABs than in HABs (TSPO [7]): more than 10 fold
CCC(C)N(C)C(=O)c1cc2ccccc2c(-c2ccccc2Cl)n1 (stereo not drawn) [[11C]PK11195]	–	–	–	in vivo specific binding in monkey brain, lower than that reported for [11C]PBR28 (TSPO [8]): ~80 fold

Second part, led by results:

Ki (TSPO [5]) [nM]	Ki (TSPO [6]) [nM]	Compound	Low:High (TSPO [4])	other results
125	4	CCN(Cc1ccccc1)C(=O)[C@@H]1CCCc2c1c1ccccc1n2CCF [Compound 1 E2]	32	–
23	24	CC(C)N(C)C(=O)[C@H]1CCCc2c1c1ccccc1n2CCF [Compound 2 E1, (S)—N-isopropyl-N-methyl-9-(2-fluoroethyl)-2,3,4,9-tetrahydro-1H-carbazole-4-carboxamide]	1	–
402	83	CC(C)N(C)C(=O)[C@@H]1CCCc2c1c1ccccc1n2CCF [Compound 2 E2]	5	–
